What was measured:
[1] = test system: WSUDLCL2; assay: Antiproliferative activity against human WSUDLCL2 cells
[2] = target: Cyclin-dependent kinase 9 (Homo sapiens) (UniProt P50750); details: dose 100.0 nM
Description: Inhibition of CDK9 (unknown origin) at 100 nM relative to control

[3] = target: Cyclin-dependent kinase 9 (Homo sapiens) (UniProt P50750); details: dose 10.0 nM
Description: Inhibition of CDK9 (unknown origin) at 10 nM relative to control

Chain of Cyclin-dependent kinase 9 (Homo sapiens) (P50750 whole entry): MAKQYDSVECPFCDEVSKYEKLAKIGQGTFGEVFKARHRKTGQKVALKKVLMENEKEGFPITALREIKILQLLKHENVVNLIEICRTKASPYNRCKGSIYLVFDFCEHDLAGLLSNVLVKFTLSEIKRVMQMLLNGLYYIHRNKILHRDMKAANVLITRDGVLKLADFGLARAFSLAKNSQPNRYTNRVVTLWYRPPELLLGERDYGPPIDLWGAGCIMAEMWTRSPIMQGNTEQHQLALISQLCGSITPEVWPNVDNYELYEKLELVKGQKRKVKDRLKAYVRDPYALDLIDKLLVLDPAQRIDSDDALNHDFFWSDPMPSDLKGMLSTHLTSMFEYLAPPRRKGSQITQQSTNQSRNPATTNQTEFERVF

| inhibition [2] [%] | inhibition [3] [%] | Structure (SMILES) | IC50 [1] [nM] |
| --- | --- | --- | --- |
| 13 | – | CC(C)(C)c1cnc(CSc2cnc(NC(=O)C3CCN(CC(=O)NCCOCCOCCOCCNc4cccc5c4C(=O)N(C4CCC(=O)NC4=O)C5=O)CC3)s2)o1 (stereo not given) | 310 |
| 88 | 30 | CC(C)(C)c1cnc(CSc2cnc(NC(=O)C3CCN(CCCn4c(=O)n(Cc5ccncc5)c(=O)c5cccnc54)CC3)s2)o1 | 13 |
| 83 | 22 | CC(C)(C)c1cnc(CSc2cnc(NC(=O)C3CCNCC3)s2)o1 [BMS-387032] | 201 |
| 84 | 19 | CC(C)(C)c1cnc(CSc2cnc(NC(=O)C3CCN(CCCn4c(=O)n(Cc5ccccc5)c(=O)c5cccnc54)CC3)s2)o1 | 326 |
| 85 | 13 | CC(C)(C)c1cnc(CSc2cnc(NC(=O)C3CCN(CCCn4c(=O)n(Cc5ccncc5)c(=O)c5ccc(Cl)cc54)CC3)s2)o1 | 82 |
| 83 | 27 | CCn1c(=O)c2cccnc2n(CCCN2CCC(C(=O)Nc3ncc(SCc4ncc(C(C)(C)C)o4)s3)CC2)c1=O | 39 |
| 82 | -2 | CCn1c(=O)c2ccc(Cl)cc2n(CCCN2CCC(C(=O)Nc3ncc(SCc4ncc(C(C)(C)C)o4)s3)CC2)c1=O | 332 |

Reference: ChEMBL document CHEMBL6114975, “Discovery of 2,4-quinazolinedione derivatives as LC3B recruiters in the facilitation of protein complex degradations” (Eur J Med Chem, 2025)
